Reference: patent US7132252B2, “Methods for detecting the interaction of compounds with cytochrome P450 using optical molecular sensors” (Invitrogen Corporation, priority 1998, dated 2006)

molecular target: T1, CYP3A4 (Homo sapiens, UniProt P08684); assay: Kinetic properties of fluorogenic substrates with CYP 3A4; assay type: biochemical; settings: turnover rate at 1.25 uM substrate; — = too low to quantify
Excerpt: For further understanding these terms in the context of this invention, attention is directed to FIG. 4 and the analysis of FIG. 4.
(§1) (respectively, MFC and MR).

T1 sequence (P08684 whole entry): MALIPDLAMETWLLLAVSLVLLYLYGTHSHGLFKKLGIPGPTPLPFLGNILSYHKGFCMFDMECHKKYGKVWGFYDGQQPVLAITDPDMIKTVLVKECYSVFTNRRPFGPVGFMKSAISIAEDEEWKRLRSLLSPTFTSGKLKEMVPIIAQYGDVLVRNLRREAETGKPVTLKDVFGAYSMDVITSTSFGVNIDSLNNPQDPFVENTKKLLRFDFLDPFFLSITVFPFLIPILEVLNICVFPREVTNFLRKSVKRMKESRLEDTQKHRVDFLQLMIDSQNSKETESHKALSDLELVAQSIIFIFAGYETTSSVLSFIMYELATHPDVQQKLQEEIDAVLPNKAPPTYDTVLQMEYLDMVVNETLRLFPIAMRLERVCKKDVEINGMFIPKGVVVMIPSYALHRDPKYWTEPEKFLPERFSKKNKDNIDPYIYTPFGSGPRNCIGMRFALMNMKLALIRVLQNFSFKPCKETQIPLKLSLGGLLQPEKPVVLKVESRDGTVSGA

SMILES | v (1.25 uM) [min⁻¹]
O=C(OCc1ccccc1)c1c2oc3cc(OCc4ccccc4)ccc3nc-2ccc1=O [BRCBE] | 0.1992
CCCCCCCCOCOc1ccc2cc(C#N)c(=O)oc2c1 [OOMCC] | 0.2274

Results, then the compound that gave them:

v (1.25 uM) [min⁻¹] | SMILES
0.4402 | CC1(C)C2=C(Cl)C(=O)C(Cl)=CC2=Nc2ccc(OCOCc3ccccc3)cc21 [BOM-DDAO]
0.0083 | COCOc1ccc2nc3ccc(=O)cc-3oc2c1 [MOMR]

same assay, conditions: turnover rate at 10 uM substrate; — = too low to quantify

SMILES | v (10 uM) [min⁻¹]
O=C(OCc1ccccc1)c1c2oc3cc(OCc4ccccc4)ccc3nc-2ccc1=O [BRCBE] | 0.6241
CCCCCCCCOCOc1ccc2cc(C#N)c(=O)oc2c1 [OOMCC] | 0.961

Further lines, results first:

v (10 uM) [min⁻¹] | SMILES
4.2041 | CC1(C)C2=C(Cl)C(=O)C(Cl)=CC2=Nc2ccc(OCOCc3ccccc3)cc21 [BOM-DDAO]
0.0338 | COCOc1ccc2nc3ccc(=O)cc-3oc2c1 [MOMR]

molecular target: T1, CYP3A4; assay: in vitro; settings: pH 8, % inhibition, substrate BOMCC, Condition A

inhibition at 20 min, 10 µM [%] | SMILES
-11 | O=C1NC(=O)C(c2ccccc2)(c2ccccc2)N1 [Diphenylhydantoin]
59 | NNC(=O)c1ccncc1 [Isoniazid]
44 | O=C1CN(/N=C/c2ccc([N+](=O)[O-])o2)C(=O)N1 [Nitrofurantoin]
7 | C=CCOc1ccccc1OCC(O)CNC(C)C (centres unmarked) [Oxprenolol]

same assay, conditions: pH 8, % inhibition, substrate BOMCC, Condition B

inhibition at 40 min, 10 µM [%] | SMILES
21 | O=C1NC(=O)C(c2ccccc2)(c2ccccc2)N1 [Diphenylhydantoin]
48 | NNC(=O)c1ccncc1 [Isoniazid]
33 | O=C1CN(/N=C/c2ccc([N+](=O)[O-])o2)C(=O)N1 [Nitrofurantoin]
21 | C=CCOc1ccccc1OCC(O)CNC(C)C (centres unmarked) [Oxprenolol]

same assay, conditions: pH 8, % inhibition, substrate BOMR, Condition A

inhibition at 20 min, 10 µM [%] | SMILES
-27 | O=C1NC(=O)C(c2ccccc2)(c2ccccc2)N1 [Diphenylhydantoin]
-8 | NNC(=O)c1ccncc1 [Isoniazid]
-19 | O=C1CN(/N=C/c2ccc([N+](=O)[O-])o2)C(=O)N1 [Nitrofurantoin]
-5 | C=CCOc1ccccc1OCC(O)CNC(C)C (centres unmarked) [Oxprenolol]

same assay, conditions: pH 8, % inhibition, substrate BOMR, Condition B

inhibition at 40 min, 10 µM [%] | SMILES
24 | O=C1NC(=O)C(c2ccccc2)(c2ccccc2)N1 [Diphenylhydantoin]
30 | NNC(=O)c1ccncc1 [Isoniazid]
27 | O=C1CN(/N=C/c2ccc([N+](=O)[O-])o2)C(=O)N1 [Nitrofurantoin]
13 | C=CCOc1ccccc1OCC(O)CNC(C)C (centres unmarked) [Oxprenolol]

same assay, conditions: pH 8, % inhibition, substrate DBOMF, Condition A

inhibition at 20 min, 10 µM [%] | SMILES
21 | O=C1NC(=O)C(c2ccccc2)(c2ccccc2)N1 [Diphenylhydantoin]
-9 | NNC(=O)c1ccncc1 [Isoniazid]
-9 | O=C1CN(/N=C/c2ccc([N+](=O)[O-])o2)C(=O)N1 [Nitrofurantoin]
1 | C=CCOc1ccccc1OCC(O)CNC(C)C (centres unmarked) [Oxprenolol]

same assay, conditions: pH 8, % inhibition, substrate DBOMF, Condition B

inhibition at 40 min, 10 µM [%] | SMILES
5 | O=C1NC(=O)C(c2ccccc2)(c2ccccc2)N1 [Diphenylhydantoin]
3 | NNC(=O)c1ccncc1 [Isoniazid]
-3 | O=C1CN(/N=C/c2ccc([N+](=O)[O-])o2)C(=O)N1 [Nitrofurantoin]
3 | C=CCOc1ccccc1OCC(O)CNC(C)C (centres unmarked) [Oxprenolol]

molecular target: CYP2D6 (Homo sapiens, UniProt P10635); assay: Kinetic properties of fluorogenic substrates with CYP 2D6; assay type: biochemical; settings: turnover rate at 1.25 uM substrate; — = too low to quantify
Excerpt: as §1

CYP2D6, sequence (P10635 whole entry): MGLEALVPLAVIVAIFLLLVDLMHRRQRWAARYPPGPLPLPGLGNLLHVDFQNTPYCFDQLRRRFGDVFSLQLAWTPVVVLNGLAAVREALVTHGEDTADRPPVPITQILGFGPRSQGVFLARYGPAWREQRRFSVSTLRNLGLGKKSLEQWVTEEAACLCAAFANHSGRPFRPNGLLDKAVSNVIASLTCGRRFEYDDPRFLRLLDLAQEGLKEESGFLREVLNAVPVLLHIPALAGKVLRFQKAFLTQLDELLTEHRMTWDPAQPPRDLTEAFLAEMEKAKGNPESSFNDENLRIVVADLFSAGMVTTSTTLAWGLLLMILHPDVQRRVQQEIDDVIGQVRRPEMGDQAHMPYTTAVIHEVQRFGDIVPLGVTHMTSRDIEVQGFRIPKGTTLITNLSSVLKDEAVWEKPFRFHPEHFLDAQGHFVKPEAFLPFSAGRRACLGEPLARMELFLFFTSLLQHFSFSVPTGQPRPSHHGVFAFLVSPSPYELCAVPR

v (1.25 uM) [min⁻¹] | SMILES
0.0076 | CC(C)Oc1ccc2cc(C#N)c(=O)oc2c1 [IPCC]
0.03396 | COCOc1ccc2nc3ccc(=O)cc-3oc2c1 [MOMR]

same assay, conditions: turnover rate at 10 uM substrate; — = too low to quantify

v (10 uM) [min⁻¹] | SMILES
0.0378 | CC(C)Oc1ccc2cc(C#N)c(=O)oc2c1 [IPCC]
0.2146 | COCOc1ccc2nc3ccc(=O)cc-3oc2c1 [MOMR]

molecular target: CYP2C19 (Homo sapiens, UniProt P33261); assay: Kinetic properties of fluorogenic substrates with CYP 2C19; assay type: biochemical; settings: turnover rate at 1.25 uM substrate; — = too low to quantify
Sequence (P33261 whole entry): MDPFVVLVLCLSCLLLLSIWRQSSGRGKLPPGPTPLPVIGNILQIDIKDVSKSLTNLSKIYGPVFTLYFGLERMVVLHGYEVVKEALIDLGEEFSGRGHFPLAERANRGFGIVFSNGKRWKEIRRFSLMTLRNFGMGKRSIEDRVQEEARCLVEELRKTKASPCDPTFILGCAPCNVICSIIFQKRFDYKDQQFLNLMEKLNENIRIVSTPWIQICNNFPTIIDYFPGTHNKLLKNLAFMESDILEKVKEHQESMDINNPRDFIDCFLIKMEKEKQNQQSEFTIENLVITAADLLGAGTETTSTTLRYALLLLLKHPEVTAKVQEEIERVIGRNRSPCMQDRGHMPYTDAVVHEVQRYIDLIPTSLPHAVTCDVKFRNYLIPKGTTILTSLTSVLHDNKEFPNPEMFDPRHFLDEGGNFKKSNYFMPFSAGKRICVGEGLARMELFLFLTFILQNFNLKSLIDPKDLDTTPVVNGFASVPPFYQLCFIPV

v (1.25 uM) [min⁻¹] | SMILES
0.03 | CCN(CC)Cc1cc(=O)oc2cc(OC)ccc12 [DMMC]
0.027 | CC(C)Oc1ccc2cc(C#N)c(=O)oc2c1 [IPCC]
0.06 | COCOc1ccc2nc3ccc(=O)cc-3oc2c1 [MOMR]
0.179 | CCCCCCCCOCOc1ccc2cc(C#N)c(=O)oc2c1 [OOMCC]

same assay, conditions: turnover rate at 10 uM substrate; — = too low to quantify

v (10 uM) [min⁻¹] | SMILES
0.23 | CCN(CC)Cc1cc(=O)oc2cc(OC)ccc12 [DMMC]
0.232 | CC(C)Oc1ccc2cc(C#N)c(=O)oc2c1 [IPCC]
0.062 | COCOc1ccc2nc3ccc(=O)cc-3oc2c1 [MOMR]
1.043 | CCCCCCCCOCOc1ccc2cc(C#N)c(=O)oc2c1 [OOMCC]
